Molecular target: Replicase polyprotein 1ab (Severe acute respiratory syndrome coronavirus, UniProt P0C6X7)
Assay: SARS-CoV 3CL Protease Inhibition Assay
Conditions: pH 7; 25 °C
Method: The effects of compound on enzyme activity were measured by using a fluorogenic peptide cleavage assay. Enhanced fluorescence caused by cleavage of the substrate peptide was monitored at 538 nm with excitation at 355 nm. The Ki measurements were performed at two fixed inhibitor concentrations and various substrate concentrations.

Row | SMILES | IC50 | Ki
1 | O=C(Nc1ccc([N+](=O)[O-])cc1Cl)c1cc(Cl)ccc1O [5-chloro-N-(2-chloro-4-nitrophenyl)-2-hydroxybenzamide] | > 50 µM | –
2 | O=C(C[C@H](O)C(=O)N[C@@H](Cc1ccccc1)C(=O)Nc1ccc([N+](=O)[O-])cc1Cl)N[C@@H](Cc1ccccc1)C(=O)Nc1ccc([N+](=O)[O-])cc1Cl [(2S)-N,N'-bis[(1S)-1-[(2-chloro-4-nitrophenyl)carbamoyl]-2-phenylethyl]-2-hydroxybutanediamide] | 4 µM | 3100 nM
3 | Cc1cc(C(=O)N[C@H](C(=O)N[C@@H](Cc2ccccc2)C(=O)N[C@@H](Cc2ccccc2)C(=O)Nc2ccc([N+](=O)[O-])cc2Cl)C(C)C)[n-][o+]1 [(2S)-N-[(1S)-1-{[(1S)-1-[(2-chloro-4-nitrophenyl)carbamoyl]-2-phenylethyl]carbamoyl}-2-phenylethyl]-3-methyl-2-[(5-methyl-1,2-oxazol-3-yl)formamido]butanamide] | 7 µM | 2900 nM
4 | Cc1cc(C(=O)N[C@H](C(=O)N[C@@H](Cc2ccccc2)C(=O)N[C@H](C(=O)N[C@@H](Cc2ccccc2)C(=O)Nc2ccc([N+](=O)[O-])cc2Cl)C(C)O)C(C)C)no1 (stereo partly drawn) [N-[(5-methylisoxazol-3-yl)carbonyl]-L-valyl-L-phenylalanyl-L-threonyl-N-(2-chloro-4-nitrophenyl)-L-phenylalaninamide] | 5 µM | 1610 nM
5 | CC(C)C[C@H](NC(=O)[C@@H](NC(=O)OC(C)(C)C)C(C)C)C(=O)N[C@@H](Cc1ccccc1)C(=O)Nc1ccc([N+](=O)[O-])cc1Cl [tert-butyl N-[(1S)-1-{[(1S)-1-{[(1S)-1-[(2-chloro-4-nitrophenyl)carbamoyl]-2-phenylethyl]carbamoyl}-3-methylbutyl]carbamoyl}-2-methylpropyl]carbamate] | > 10 µM | –

From BindingDB's records for doi:10.1021/jm050184y (National Taiwan University, 2005)
